Data: patent US8729055B2, “Ursolic acid derivative and pharmaceutical composition thereof” (Kaohsiung Medical University, priority 2010, dated 2014)

Columns and labels:
[1] = test system: NTUB1 cells (human bladder cancer cell line); test: MTT cytotoxicity assay against NTUB1 cells; format: cell-based
Description: In the present embodiment, cell culture and MTT assay is used for cell viability/proliferation. NTUB1, a human bladder cancer cell line, is established from a high-grade bladder cancer. […] The cells are cultured at 37° C. in a humidified atmosphere containing 5% CO2. […] Briefly, the cells are plated at a density of 1800 cells/well in 96-well plates and incubated at 37° C. overnight before drug exposure. Cells are then cultured in the presence of graded concentrations of the test compound with or without various concentrations of cisplatin (Pharmacia & Upjohn, Milan, Italy) at 37° C. for 72 h. At the end of the culture period, 50 μL of MTT (2 mg/mL in PBS) is added to each well and allowed to react for 3 h. Following centrifugation of plates at 1000 g for 10 min, media are removed and 150 μL DMSO are added to each well. The proportions of surviving cells are determined by absorbance spectrometry at 540 nm using […]) microplate reader. The cell viability is expressed as a percentage to the viable cells of control culture condition. The IC50s of each group are calculated by the […] analysis and presented as mean±standard deviation (SD). […] In Table 1, data are presented as mean±SD (n=5). […] The control cells are treated with culture medium containing 0.1% DMSO. Cisplatin is used as a positive control.

[2] = test system: rat peritoneal mast cells stimulated with compound 48/80; test: Experiment C: release of β-glucuronidase from rat peritoneal mast cells stimulated with compound 48/80; format: cell-based; conditions: 30 μM; given when 50% inhibition not reached
Description: (§1) This example illustrates the anti-inflammatory activities of compounds 5, 7-11, 20 and 21. The anti-inflammatory activities of compounds 5, 7-11, 20 and 21 are studied in vitro for their inhibitory effects on chemical mediators released from neutrophils, mast cells or macrophages of rat.
(§2) Please refer to Table 2, which illustrates the inhibitory effects of compounds 5, 7-11, 20 and 21 on the accumulation of NO2^− (Experiment A), superoxide anion formation (n mol/10^6 cells/30 min) from rat neutrophils stimulated with PMA (Experiment B), and the release of β-glucuronidase from rat peritoneal mast cells stimulated with compound 48/80 (Experiment C). In Table 2, when 50% inhibition could not be reached at the highest concentration, the percentage of inhibition at 30 μM is given.
In the Experiment C, Heparinized Tyrode's solution is injected into the peritoneal cavity of exsanguinated rat (Sprague-Dawley, 250-300 g). After abdominal massage, cells in the peritoneal fluid are harvested and then separated in 38% bovine serum albumin (BSA) in glucose-free Tyrode's solution. […] Fifteen min after the addition of compound 48/80 ([…]), β-glucuronidase (phenolphthalein-β-glucuronide as substrate, 550 nm) in the supernatant is determined. The total content of β-glucuronidase is measured after treatment of the cell suspension with Triton X-100, and the percentage release is calculated. […]

accumulation of NO2− = test: Experiment A: accumulation of NO2− (Griess reaction); format: cell-based, rat; conditions: inhibition of accumulation of NO2−
Description: as §1, §2
In the Experiment A, Nitric oxide (NO) in the cell medium is determined by the Griess reaction, and N-(3-aminomethyl)benzylamide (1400 W) is used as a positive control.

[3] = test system: microtubule assembly in NTUB1 cells; test: Microtubule assembly by indirect immunofluorescence staining in NTUB1 cells; format: cell-based, human; conditions: 10 nM taxol, FIG. 5(B)
Description: All inhibition of tubulin polymerization has been implicated in G2/M phase cell cycle arrest in various cancer cell lines. Accordingly, whether treatment of cells with 20 μM compound 23 for 48 h affects in vivo microtubular architecture is investigated in the present example. Microtubule assembly is analyzed by indirect immunofluorescence staining using an anti-tubulin antibody (Santa Cruz Biotechnology, Santa Cruz, Calif., USA).
NTUB1 cells plated on coverslips are treated with no compound as control, 10 nM taxol, 50 μM compound 23 for 24 h. After treatment, cells are fixed with 2% formaldehyde/PBS for 20 min, washed with PBS, and cold methanol (−20° C.) for 3 min. After washing with PBS, cells are added anti-α-tubulin monoclonal antibody (Sigma, Co) in PBS and incubated for 3 h at room temperature. Then cells are washed with PBS and reincubated with Rodamine-conjugated secondary antibody (Sigma, Co) in dark room for 1 h at room temperature. After being washed with PBS, coverslips are mounted with 80% glycerol in PBS and examined with Axioskop 2 plus fluorescence microscope.
Please refer to FIGS. 5(A) to 5(C), which are diagrams showing the effects of taxol and compound 23 on microtubule assembly, wherein the cellular microtubules are observed by Axioskop 2 plus fluorescence microscope.

IC50 (accumulation of NO2−)	SMILES	IC50 ([1]; NTUB1 cells, MTT, 72 h, mean±SD (n=5))	% of viability at the highest concentration ([1]; NTUB1 cells, given when 50% inhibition not reached at the highest concentration (30 μM))	cytotoxic activity against NTUB1 cells, in words ([1]; comparison with the parent compound, from Table 1)	percentage of inhibition at 30 μM, C β-glucuronidase [2]	effect on microtubule assembly [3]
15.6 ± 2.5 µM	C=C(C)[C@@H]1CC[C@]2(C)[C@H](CC=C3[C@@H]4[C@@H](C)[C@H](C)CC[C@]4(C(=O)O)CC[C@]32C)[C@@]1(C)CCC(=O)OC [Compound 21, Methyl 3,4-seco-ursan-4(23), 12-dien-28-oic 3-oat]	> 30 µM	62.77%	weakens cytotoxic activities	29.3 ± 2.1%	–
–	CC(=O)O[C@H]1C(=O)[C@@]2(C)[C@H]([C@H](OC(=O)c3ccccc3)[C@]3(O)C[C@H](OC(=O)[C@H](O)[C@@H](NC(=O)c4ccccc4)c4ccccc4)C(C)=C1C3(C)C)[C@]1(OC(C)=O)CO[C@@H]1C[C@@H]2O [taxol]	–	–	–	–	distinctive microtubule bundle
